From ChEMBL document CHEMBL3507680, “University of Dundee, Gates Library screen for HepG2 cell viability”

assay: Human HepG2 cell viability assay in 384 well format; type: toxicity, cell-based; parameters: dose 125 nL, time 70.5 hour; cytotoxicity at 70.5 h: concentration not given beside the values; settings: HepG2 cells, read-out: Inhibition

SMILES	cytotoxicity at 70.5 h
Cc1cc(C(C)NC(=O)CCN2C(=O)c3ccccc3C2=O)c(C)o1 (configuration not stated)	28.1%
Cc1cccc(NC(=O)CCC(=O)NCC(=O)c2ccccc2F)c1	2.08%
CC(=O)Nc1ccc(SCC(O)COCc2ccccc2)cc1 (configuration not stated)	-12.4%
O=C1CN(Cc2cc(O)c3cccc(F)c3n2)CCN1C1CCCC1	5.5%
COCCN(C)C[C@@H]1CCC[C@@H]2CN(c3ncccn3)C[C@@H]21	-0.79%
CCC(=O)N1CCN(c2ncnc3c(C)nn(C)c23)CC1	15.4%
CSC(C)C(=O)N(C)C1CCN(c2ccc(Cl)cc2)CC1 (configuration not stated)	2.45%
CC(c1ccccc1)N(C)C(=O)Cn1cc(NC(=O)C(C)(C)C)cn1 (configuration not stated)	-3.77%
COc1ccc(Cl)cc1NC(=O)CNc1ccn(CC(N)=O)n1	20.1%
Cc1nnsc1CNC(=O)CSCc1ccccc1Cl	-7.02%
Cc1nc(N2CCN(C(=O)c3cccnc3)CC2)cc(-n2cccc2)n1	4.9%
Cc1csc(CN2CC[C@H]3C[C@@H](c4nc(C)no4)O[C@@H]3C2)n1	-7.69%
CN(C)CC(=O)N1Cc2cc(-c3cc[nH]n3)ccc2C1c1cnco1 (configuration not stated)	-1.64%
Cn1cc(CNC2CCOCC2)c(-c2cc3ccccc3o2)n1	-5.58%
COCCC(=O)N1CCC(c2cc3ncc(C)nc3[nH]2)CC1	-14.7%
OCC1(CCOc2ccccc2)CCN(c2ccc(Cl)cn2)CC1	-7.7%
COc1nc2c(cc1C(=O)N(C)Cc1n[nH]c3c1CCCC3)CCC2	-6.28%
CC(C)Cn1ncc(C(=O)NS(=O)(=O)C2CCCC2)c1C1CC1	-8.4%
Cc1ccc(C2(CN(C)Cc3c(C)nn(C)c3C)CCNCC2)nc1	19.9%
COc1coc(C(=O)Nc2nc(C)cs2)cc1=O	-15.8%
O=C(O)c1c(-c2ccncc2)ncc2c1CCN(Cc1ccco1)C2	3.95%
N#Cc1ccc(N2CCC(OCCc3ccccc3)CC2)nc1	-13.8%
Cn1cc(Br)cc1C(=O)NCC(C)(O)c1ccsc1 (configuration not stated)	-9.72%

SMILES	cytotoxicity at 70.5 h
N#Cc1ccc(C(=O)N(C2CC2)C2CC(=O)NC2=O)cc1 (configuration not stated)	-8.96%
CC(C)N(CCS(C)(=O)=O)Cc1csc(-c2ccccc2F)n1	-13.1%
CN(C)C(=O)N1CCN(C(=O)C(c2ccccc2F)N(C)C)CC1 (configuration not stated)	-4.32%
Cc1cc(COc2ccc(OC3CCCCNC3=O)cc2)on1 (configuration not stated)	-3.96%
CN(C)c1ncnc2c1CCN(C(=O)c1sccc1S(N)(=O)=O)C2	-2.96%
Nc1ncnc2nc(C3CCCCN3)ccc12 (configuration not stated)	-6.59%
Cn1cc(S(=O)(=O)Nc2ccc(Cl)cn2)cc1C(N)=O	-3.76%
Cc1cccc(C)c1OC1CN(C(=O)C2CCCN(C(=O)N(C)C)C2)C1 (configuration not stated)	-9.46%
Cc1ccc(Cl)cc1NCc1nc2n(n1)CCCCC2	7.47%
Cc1nc(C)n(C2CCCN(C(=O)Cc3cn4ccccc4n3)C2)n1 (configuration not stated)	1.25%
Cc1nc(CN2CCC3(CC2)NC(=O)CC3c2ccncc2)cs1 (configuration not stated)	-5.12%
CN1CCCC(c2nccnc2-c2cccc(C(F)(F)F)c2)C1 (configuration not stated)	-0.583%
COCC(C)NC(=O)CN1CCC(CO)CC1 (configuration not stated)	-3.9%
O=C(CN1CCC(c2ccnn2CCO)CC1)NC1CCCC1	-3.63%
CCCN(CC1COc2ccccc2O1)C(=O)C1=NN(C)C(=O)CC1 (configuration not stated)	-9.94%
CC(NC1CCN(CCS(C)(=O)=O)CC1)c1cnn(C(C)C)c1 (configuration not stated)	-10.2%
CCN1C(=O)CCCC12CCCN(C(=O)c1ccsc1)C2 (configuration not stated)	1.97%
CC(C)Sc1ccc(C(C)Nc2nc3c(cnn3C)c(=O)[nH]2)cc1 (configuration not stated)	-3.27%
Cc1cc(NC(=O)c2ccc(F)cc2Cl)n(C)n1	6.57%
CC(C)c1cc(NC(=O)CN2CCn3c(nnc3C3CC3)C2)on1	19.6%
O=C(C1CCOCC1)N1CC[C@@H](O)[C@@H]1Cc1ccccc1	1.56%
O=C(NCc1ccccc1)N1Cc2nc(COCC3CC3)oc2C1	4.6%
COCc1ncn(Cc2nc(-c3ccc(OC)cc3F)oc2C)n1	51.2%

SMILES	cytotoxicity at 70.5 h
Cc1nn(C)c2cn(C(C)C(=O)NCc3cccc(F)c3)nc12 (configuration not stated)	-3%
CN(Cc1cc(C2CC2)on1)C(=O)CN1CC(c2ccccc2)CC1=O (configuration not stated)	-8.22%
COc1cc(CC(=O)Nc2cccc(C(=O)N(C)C)n2)ccc1C	46.5%
CC(C)Oc1cccc(C(=O)C2CCCN(S(=O)(=O)C(C)C)C2)c1 (configuration not stated)	-7.26%
Cc1nn(C)c(C)c1CC(=O)N1CCC(Nc2cccnn2)CC1	35.9%
Cc1nnc(NC(=O)NCc2ccc(N3CCOCC3)nc2)s1	-5.81%
NC(=O)NCCC(=O)NCc1cccnc1N1CCc2ccccc2C1	-11.6%
CN(C)C(=O)N[C@@H]1CN(C2CCOCC2)[C@@H]2CCCO[C@@H]21	-2.52%
CCCC(O)CN1CCC(=O)N(C)Cc2cc(F)ccc21 (configuration not stated)	18.5%
O=C(CC1CC1)N1CCC2(CC(=O)N(c3cccc(F)c3)C2)C1 (configuration not stated)	-6.99%
CC1CCN(S(=O)(=O)N2Cc3ccccc3C[C@H]2C(N)=O)CC1	-4.51%
CS(=O)(=O)c1ccccc1-n1cc(NC(=O)CC2C=CCC2)cn1 (configuration not stated)	-6.16%
Cc1nn(C)c(Cl)c1C1CCCN1Cc1nnc(C2CC2)n1C (configuration not stated)	-0.0718%
CC(C)c1cc(C(=O)N(C)C(C)c2nccs2)no1 (configuration not stated)	-7.34%
CN1CCN(c2nsc(-c3ccccc3)c2C#N)CC1	-2.35%
O=C(CCN1CCCCO1)N1CCC(CO)(CCc2ccccc2)CC1	-10.2%
Cc1oc(C)c(C(=O)NCc2cccc(NC(=O)CN(C)C)c2)c1C	-8.3%
NC(=O)C(NCc1nn(-c2ccccc2)c2c1CCC2)c1ccccc1 (configuration not stated)	-10.6%
CCCC1(CO)CCCN(C(=O)CNC(C)=O)C1 (configuration not stated)	-10.4%
Cc1nc2c(C(=O)N[C@H]3C[C@H]4CN(C)CCN4C3)cccc2[nH]1	-10.2%
Cc1nn(C)c2c(N3CCN(C(=O)C4CC4)CC3)ncnc12	16.2%
CN1CCCN(c2nccc(-c3cncnc3C3CCCCC3)n2)CC1	20.6%
COc1ccc(C(C)NS(=O)(=O)c2ccc3c(c2)CCC(=O)N3)cc1F (configuration not stated)	12.7%

SMILES	cytotoxicity at 70.5 h
Cc1ccc(CN2CC[C@H](c3nc4cccc(C(N)=O)c4[nH]3)C2)cc1	31.1%
CS(=O)(=O)c1ccccc1NCc1ccc(Cn2ccnc2)cc1	-0.289%
CCOCC1CN(S(C)(=O)=O)Cc2cnn(CC3CCOCC3)c21 (configuration not stated)	-0.335%
Cc1ccccc1N1CCN(C(=O)c2cnc(C3CC3)nc2)C(C)C1 (configuration not stated)	-2.79%
Cn1cc(NC(=O)c2cccc(C(F)(F)F)c2)c(=O)n(C)c1=O	-2.92%
CC(C)COCCCNC(=O)c1cccnc1N1CCOCC1	4.2%
Nc1cc(N2CCCC2c2cnccn2)ncn1 (configuration not stated)	-7.75%
CCc1ccc(NC(=O)N2C[C@H]3C[C@H](C(=O)N4CCCC4)[C@@H](C2)O3)cc1	21%
O=C(CN1CCN(c2ncnc3cccc(F)c23)CC1)N1CCCC1	-9.51%
Cc1nn(C)c(C)c1CCC(=O)N(C)Cc1ccc2nsnc2c1	-4.18%
CCCN(CCO)C(=O)c1cc(COc2ccc3c(c2)CCCC3)on1	11.2%
COCCN(CCOC)C(=O)c1cn(C(C)(C)C)c2ncccc12	3.1%
Cc1ccc2[nH]c(C(=O)NCCCn3ccnn3)c(C)c2c1	22.6%
O=C(c1ccccc1F)N1CCCn2c(CN3CCCCC3)nnc2C1	-6.86%
CN(C)C1(CNc2nccc(-c3cnn(C)c3)n2)CCSC1 (configuration not stated)	-0.261%
Cn1nnc2c1CCN(C(=O)C1CCC1)C2COCCN1CCCC1 (configuration not stated)	-2.83%
CN(Cc1ccc([S+](C)[O-])cc1)c1ccc(C(F)(F)F)cn1 (configuration not stated)	-4.29%
CC(C)C(=O)N1Cc2ccccc2CC2(CCCCN2C)C1 (configuration not stated)	-10.2%
CCn1cc(-c2cc(-c3cc(CC(=O)O)cs3)nc(N)c2C#N)c(C)n1	-0.397%
Cn1cccc1C(=O)Nc1cc(F)ccc1OCC1CCCO1 (configuration not stated)	-17.4%
CN(C)c1nccc(CNS(=O)(=O)c2ccc(F)c(Cl)c2)n1	-5.5%
CC(CO)CN(Cc1ccccc1)Cc1c[nH]cn1 (configuration not stated)	-15.2%
O=S(=O)(N1CCOCC1)N1CCOC(CCCc2ccccc2)C1 (configuration not stated)	-11.2%

SMILES	cytotoxicity at 70.5 h
COc1ccc(OC)c(CCNC(=O)NC(C)Cn2ccnc2)c1 (configuration not stated)	22%
CCc1nccn1C1CCCN(C(=O)c2ccn(-c3ccccc3)n2)C1 (configuration not stated)	-1.19%
CC(=O)N1N=C(COc2ccc3c(c2)OCO3)OC1c1ccc(C)cc1 (configuration not stated)	-14.5%
CCc1nnc(SC2CCN(c3ccccc3F)C2=O)n1C (configuration not stated)	-2.9%
O=C(c1cnccn1)N1CCCC2(COCCN(CC3CC3)C2)C1 (configuration not stated)	-20.3%
CCn1cc(CN2CCCN(C3Cc4ccccc4C3)CC2)cn1	-7.57%
Cn1cc(C(C)(O)CNc2ccc(C(F)(F)F)cn2)cn1 (configuration not stated)	-1.94%
O=C(NCC(O)(c1ccco1)C1CC1)c1c(F)cccc1Cl (configuration not stated)	-0.808%
Cc1ccc(N2CC[C@@]3(O)CCN(S(C)(=O)=O)C[C@H]3C2)nn1	6.8%
O=C(CN1CCCC(c2ccn[nH]2)C1)Nc1nncs1 (configuration not stated)	1.3%
COc1ccc(C(=O)C2CCCN(c3cc(OC)ncn3)C2)c(C)c1 (configuration not stated)	10.1%
CN1C(=O)CC(c2cnn(C)c2)C12CCN(CC1CCOCC1)CC2 (configuration not stated)	-9.88%
CC(C)CCN1CC2(CCCN(C(=O)NCc3cccs3)C2)CCC1=O (configuration not stated)	-2.43%
Cc1ccc(CNC(=O)NCCCO)cc1	19.3%
Cc1cnccc1-c1cc(NCCO)nc2[nH]ccc12	14.2%
Cn1nc(C2CCCN2)c2c(C(=O)NCC(F)(F)F)cc(C3CC3)nc21 (configuration not stated)	17.1%
Cc1noc(C)c1CN(C)C(=O)CCOc1ccc(Cl)cc1	-11.7%
COCC(=O)NCCC(=O)N1CCN(S(=O)(=O)c2ccc(Br)cc2)CC1	13.5%
CCN1CC2(CC1=O)CN(C(=O)COC)CCN(S(C)(=O)=O)C2 (configuration not stated)	-11%
CCn1cnnc1C1CCN(C(=O)c2cccc(C)c2C)CC1	30.1%
